Drawing on PubChem BioAssay (NCI), this text covers GI50 and TGI for ten molecules.

Common to all, as to test: NCI-60 cell line screen, 48 h
The test system of test [1] is SF-268 CNS.
Test [2] deals with HCC-2998 colon.
In test [3] the test system is UACC-62 melanoma.
Test [4] concerns UACC-257 melanoma.
Test [5] has as its system SW-620 colon.
Test [6] relates to CCRF-CEM leukemia.
Test [7] relates to KM12 colon.
In test [8] the test system is NCI-H226 lung.
Test [9] concerns A498 renal.
The subject of test [10] is K-562 leukemia.

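In this assay, cells in 96-well plates receive the compound at five concentrations for 48 hours. Endpoints are linearly interpolated between the surrounding concentrations. GI50 marks 50% less growth. TGI marks complete inhibition of growth.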 Where only a bound is given, the exact number is not on record here.

For the molecule `O=C(COc1ccc(/C=C2\Oc3ccc4ccccc4c3C2=O)cc1)c1ccc([N+](=O)[O-])cc1`, the GI50 is 13.2 µM in [1]; 16.7 µM in test [2]; 11.9 µM in [3]; 18.9 µM in test [4]; 3.88 µM in [5]; 1.81 µM in [6]. For the same molecule, the GI50 in [7] was 10.9 µM; in test [8], 16.7 µM; in [9], 41.5 µM; in [10], 5.19 µM. Besides, the TGI in [1] worked out at 33.7 µM; in test [2], 31.6 µM; in [3] it was 25.9 µM; in test [4], 58.5 µM; in test [5], 14.1 µM; in test [6], 4.12 µM. Moreover, the TGI in test [7] is 23.4 µM; in test [8], 39.1 µM; in [9] it was more than 100 µM; in [10], more than 100 µM.
Take `OCC1NC(COC2OC(CO)C(O)C(O)C2O)C(O)C(O)C1O` (centres undefined): the TGI in [1], in test [2], in test [3], in test [4], in test [5] and in [6] was more than 100 µM in each case. Further, the TGI in [7], in test [8], in test [9] and in [10] was more than 100 µM in each case.
In the case of `N#C/C(=C\c1ccc(O)c(O)c1)C(=O)NCc1ccc(C(F)(F)F)cc1`, the GI50 was 14.9 µM in test [1]; 12.1 µM in test [2]; 4.25 µM in test [3]; 17.9 µM in [4]; 7.68 µM in test [5]; 2.14 µM in [6]. Moreover, the GI50 is 6.08 µM in test [7], 19.8 µM in test [8], 16 µM in test [9] and 9.91 µM in test [10]. The TGI is more than 62.9 µM in test [1]; 24.5 µM in test [2]; 13.9 µM in test [3]; more than 68.6 µM in [4]; 37.8 µM in test [5]; 14.7 µM in test [6]. For the same molecule, the TGI in [7] was 26.9 µM; in test [8] it was 54.9 µM; in test [9], 36.1 µM; in test [10] it was more than 83.6 µM.
Turning to `O=C(Nc1cccc(C(F)(F)F)c1)C(=O)C(C(=O)c1ccc(Cl)c(Cl)c1)C1OC(=O)c2ccccc21` (centres undefined), the TGI in [1] was more than 100 µM; in test [2], more than 100 µM; in test [3] it was 88.3 µM; in test [4], more than 100 µM; in test [5] it was more than 100 µM; in [6], more than 100 µM. For the same molecule, the TGI in [7] is more than 100 µM; in test [8] it was 62.5 µM; in [9], 79.8 µM; in test [10] it was more than 100 µM.
In the case of `c1ccc2c(c1)[nH]c1cnc3c4ncccc4[nH]c3c12`, the TGI in test [1], in [2], in test [3], in [4], in test [5] and in [6] was more than 100 µM each time. In addition, the TGI in [7], in test [8], in test [9] and in [10] was more than 100 µM throughout.
`COc1ccc(-c2nn(-c3cccc(Cl)c3)cc2/C=C2\NC(=S)N(c3ccc(Cl)cc3)C2=O)cc1`: the GI50 is 7.41 µM in test [1]; 7.93 µM in test [2]; 3.29 µM in test [3]; 3.95 µM in test [4]; 8.51 µM in [5]; 2.98 µM in test [6]. The GI50 in test [7] is 10.1 µM; in test [8] it was 4.03 µM; in test [9] it was 3.51 µM; in [10] it was 3.12 µM. Moreover, the TGI in test [1] was more than 25 µM; in test [2], more than 25 µM; in test [3], 7.64 µM; in [4] it was 8.55 µM; in test [5], more than 25 µM; in test [6], 11 µM. The TGI was more than 25 µM in [7], 9.36 µM in [8], 8.56 µM in test [9] and 7.92 µM in test [10].
Consider `O/N=C1/CCCC/C1=C/C=C/c1ccccc1`, for which the TGI amounted to 47.1 µM in [1]; 45.2 µM in test [2]; 40.8 µM in test [3]; 64 µM in test [4]; 77.1 µM in test [5]; 67 µM in test [6]. The TGI is 47.1 µM in test [7], 60.7 µM in test [8], 41.2 µM in test [9] and 96.1 µM in [10].
For the molecule `Cc1nc2ccccn2c1NC(=O)NN1C(=O)CSC1c1ccc(Cl)cc1` (centres undefined), the GI50 in test [1], in test [2], in [3], in test [4], in test [5] and in [7] was more than 100 µM throughout. For the same molecule, the GI50 in [8], in test [9] and in [10] was more than 100 µM in each case. The TGI was more than 100 µM in test [1]; more than 100 µM in test [2]; more than 100 µM in test [3]; more than 100 µM in [4]; more than 100 µM in test [5]; 0.012 µM in test [6]. The TGI in test [7], in test [8], in test [9] and in [10] was more than 100 µM throughout.
Turning to `O=C(CCC(=O)Nc1ccccc1C(F)(F)F)N/N=C1\C(=N\NC(=O)CCC(=O)Nc2ccccc2C(F)(F)F)C(c2ccc3c(c2)OCO3)Oc2ccccc21` (centres undefined), the TGI was 18.9 µM in test [1]; more than 100 µM in [2]; more than 100 µM in [3]; more than 100 µM in [4]; more than 100 µM in test [5]; 66.3 µM in [6]. The TGI in [7], in test [8], in [9] and in test [10] was more than 100 µM throughout.
Regarding `C/C(NNC(=O)c1ccccc1O)=C1\C=Nc2ccccc2S1`, the TGI in test [1] was more than 100 µM; in test [2] it was 7.45 µM; in [3], 9.61 µM; in test [4], more than 100 µM; in [5], more than 100 µM; in test [6], more than 100 µM. For the same molecule, the TGI in [7] was more than 100 µM; in test [8], 33.1 µM; in [9], more than 100 µM; in [10] it was more than 100 µM.
